Experimental data: ChEMBL document CHEMBL1201862, “PubChem BioAssay data set” (2004)
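Each compound was tested at five concentrations against cells in 96-well plates for 48 hours. Here, GI50 denotes the concentration required for 50% inhibition of growth.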 Activity calls are given as the source filed them. Rule as the data show it: active = GI50 up to about 1.1 µM and inactive = higher.

Columns and labels:
Experiment in all cases: DTP human tumour cell line panel, 48 h
[1] = tested on: UACC-257
[2] = tested on: A549
[3] = tested on: EKVX
[4] = tested on: MOLT-4
[5] = tested on: HT-29
[6] = tested on: ACHN
[7] = tested on: NCI-H23
[8] = tested on: OVCAR-4
[9] = tested on: SF-268
[10] = tested on: HL-60
[11] = tested on: OVCAR-3
[12] = tested on: SK-MEL-5
[13] = tested on: MDA-MB-435
[14] = tested on: K562
[15] = tested on: CAKI-1
[16] = tested on: NCI-H522
[17] = tested on: U-251
[18] = tested on: HOP-62
[19] = tested on: M14
[20] = tested on: UO-31
[21] = tested on: IGROV-1
[22] = tested on: PC-3
[23] = tested on: OVCAR-8
[24] = tested on: MDA-N
[25] = tested on: MDA-MB-231
[26] = tested on: SF-295
[27] = tested on: SW-620
[28] = tested on: A498
[29] = tested on: BT-549
[30] = tested on: HCT-116
[31] = tested on: NCI-H226
[32] = tested on: HCT-15
[33] = tested on: MCF7
[34] = tested on: SN12C
[35] = tested on: OVCAR-5
[36] = tested on: HCC 2998
[37] = tested on: HOP-92
[38] = tested on: LOX IMVI
[39] = tested on: SNB-19
[40] = tested on: UACC-62
[41] = tested on: NCI/ADR-RES
[42] = tested on: NCI-H460
[43] = tested on: Malme-3M
[44] = tested on: T47D
[45] = tested on: SNB-75
[46] = tested on: DU-145
[47] = tested on: 786-0
[48] = tested on: COLO 205
[49] = tested on: SK-MEL-28
[50] = tested on: TK-10
[51] = tested on: Hs-578T
[52] = tested on: SR
[53] = tested on: CCRF-CEM
[54] = tested on: RXF 393
[55] = tested on: KM12
[56] = tested on: SK-OV-3
[57] = tested on: SK-MEL-2
[58] = tested on: SF-539

Structure (SMILES): COc1ccc(/C=N\N(C)Cc2cccc3ccsc23)cc1
- GI50 [1]: 48.9 µM (inactive)
- GI50 [2]: > 100 µM (inactive)
- GI50 [3]: > 100 µM (inactive)
- GI50 [4]: 46.8 µM (inactive)
- GI50 [5]: 49.2 µM (inactive)
- GI50 [6]: > 100 µM (inactive)
- GI50 [7]: 60.4 µM (inactive)
- GI50 [8]: 92.5 µM (inactive)
- GI50 [9]: > 100 µM (inactive)
- GI50 [10]: > 100 µM (inactive)
- GI50 [11]: 33.6 µM (inactive)
- GI50 [12]: 28.6 µM (inactive)
- GI50 [13]: > 100 µM (inactive)
- GI50 [14]: 54.8 µM (inactive)
- GI50 [15]: > 100 µM (inactive)
- GI50 [16]: > 100 µM (inactive)
- GI50 [17]: > 100 µM (inactive)
- GI50 [18]: > 100 µM (inactive)
- GI50 [19]: > 100 µM (inactive)
- GI50 [20]: > 100 µM (inactive)
- GI50 [21]: > 100 µM (inactive)
- GI50 [22]: > 100 µM (inactive)
- GI50 [23]: > 100 µM (inactive)
- GI50 [24]: 70.6 µM (inactive)
- GI50 [25]: > 100 µM (inactive)
- GI50 [26]: > 100 µM (inactive)
- GI50 [27]: > 100 µM (inactive)
- GI50 [28]: > 100 µM (inactive)
- GI50 [29]: > 100 µM (inactive)
- GI50 [30]: 72.4 µM (inactive)
- GI50 [31]: > 100 µM (inactive)
- GI50 [32]: 92.9 µM
- GI50 [33]: > 100 µM (inactive)
- GI50 [34]: > 100 µM (inactive)
- GI50 [35]: > 100 µM (inactive)
- GI50 [36]: > 100 µM (inactive)
- GI50 [37]: > 100 µM (inactive)
- GI50 [38]: > 100 µM (inactive)
- GI50 [39]: > 100 µM (inactive)
- GI50 [40]: > 100 µM (inactive)
- GI50 [41]: > 100 µM (inactive)
- GI50 [42]: > 100 µM (inactive)
- GI50 [43]: > 100 µM (inactive)
- GI50 [44]: > 100 µM (inactive)
- GI50 [45]: > 100 µM (inactive)
- GI50 [46]: > 100 µM (inactive)
- GI50 [47]: > 100 µM (inactive)
- GI50 [48]: > 100 µM (inactive)
- GI50 [49]: > 100 µM (inactive)
- GI50 [50]: > 100 µM (inactive)
- GI50 [51]: > 100 µM (inactive)
- GI50 [52]: 90.2 µM (inactive)
- GI50 [53]: > 100 µM (inactive)
- GI50 [54]: > 100 µM (inactive)
- GI50 [55]: > 100 µM (inactive)
- GI50 [56]: > 100 µM (inactive)

Structure (SMILES): COc1ccc(CNC2=N/C(=C\c3ccccc3Cl)C(=O)N2C)cc1
- GI50 [1]: 33.6 µM (inactive)
- GI50 [2]: 31.1 µM (inactive)
- GI50 [3]: 28.3 µM (inactive)
- GI50 [4]: 27.1 µM (inactive)
- GI50 [5]: 22.9 µM (inactive)
- GI50 [6]: 29.6 µM (inactive)
- GI50 [8]: 23.9 µM (inactive)
- GI50 [9]: 45 µM (inactive)
- GI50 [10]: 25.8 µM (inactive)
- GI50 [11]: 22.8 µM (inactive)
- GI50 [12]: 19.9 µM (inactive)
- GI50 [13]: 19 µM (inactive)
- GI50 [14]: 25.5 µM (inactive)
- GI50 [15]: 30.7 µM (inactive)
- GI50 [16]: 20.5 µM (inactive)
- GI50 [17]: 17.9 µM (inactive)
- GI50 [18]: 47.8 µM (inactive)
- GI50 [19]: 17.9 µM (inactive)
- GI50 [21]: 24.9 µM (inactive)
- GI50 [22]: 28.1 µM (inactive)
- GI50 [23]: 27.1 µM (inactive)
- GI50 [24]: 18.8 µM (inactive)
- GI50 [25]: 26.4 µM (inactive)
- GI50 [26]: 31.7 µM (inactive)
- GI50 [27]: 19.5 µM (inactive)
- GI50 [28]: 25.7 µM (inactive)
- GI50 [29]: 36.8 µM (inactive)
- GI50 [30]: 18.4 µM (inactive)
- GI50 [31]: 49.2 µM (inactive)
- GI50 [32]: 28.4 µM
- GI50 [57]: 19.3 µM (inactive)
- GI50 [33]: 25.5 µM (inactive)
- GI50 [34]: 19.6 µM (inactive)
- GI50 [35]: 27.9 µM (inactive)
- GI50 [36]: 21.8 µM (inactive)
- GI50 [37]: 23.1 µM (inactive)
- GI50 [38]: 20.1 µM (inactive)
- GI50 [39]: 38.6 µM (inactive)
- GI50 [40]: 17.5 µM (inactive)
- GI50 [41]: 28 µM (inactive)
- GI50 [42]: 30.1 µM (inactive)
- GI50 [43]: 33 µM (inactive)
- GI50 [44]: 14.2 µM (inactive)
- GI50 [45]: 11.8 µM (inactive)
- GI50 [46]: 27.7 µM (inactive)
- GI50 [47]: 19.7 µM (inactive)
- GI50 [48]: 24.9 µM (inactive)
- GI50 [49]: 33 µM (inactive)
- GI50 [50]: 37.7 µM (inactive)
- GI50 [51]: 57.4 µM (inactive)
- GI50 [52]: 25.2 µM (inactive)
- GI50 [58]: 24.6 µM (inactive)
- GI50 [54]: 31.8 µM (inactive)
- GI50 [55]: 20.4 µM (inactive)
- GI50 [56]: 51.2 µM (inactive)

Structure (SMILES): CCOc1ccc(/N=N/C2C(=O)N(C(=O)CC(=O)Nc3ccccc3)N=C2C)cc1 (configuration not stated)
- GI50 [1]: > 100 µM (inactive)
- GI50 [2]: 34.5 µM (inactive)
- GI50 [3]: 17.4 µM (inactive)
- GI50 [4]: 36.5 µM (inactive)
- GI50 [5]: 33.6 µM (inactive)
- GI50 [6]: > 100 µM (inactive)
- GI50 [7]: 78.3 µM (inactive)
- GI50 [8]: > 100 µM (inactive)
- GI50 [9]: 61.8 µM (inactive)
- GI50 [10]: 33.8 µM (inactive)
- GI50 [11]: 53.8 µM (inactive)
- GI50 [12]: 42.8 µM (inactive)
- GI50 [13]: 5.07 µM (inactive)
- GI50 [15]: 55.3 µM (inactive)
- GI50 [16]: 83.9 µM (inactive)
- GI50 [17]: 34.8 µM (inactive)
- GI50 [18]: 59.3 µM (inactive)
- GI50 [19]: 58.1 µM (inactive)
- GI50 [20]: > 100 µM (inactive)
- GI50 [21]: 37.3 µM (inactive)
- GI50 [22]: > 100 µM (inactive)
- GI50 [23]: > 100 µM (inactive)
- GI50 [24]: 2.68 µM (inactive)
- GI50 [25]: 39.8 µM (inactive)
- GI50 [26]: > 100 µM (inactive)
- GI50 [27]: 33.4 µM (inactive)
- GI50 [28]: 79.4 µM (inactive)
- GI50 [29]: 33.6 µM (inactive)
- GI50 [30]: 29.1 µM (inactive)
- GI50 [31]: > 100 µM (inactive)
- GI50 [32]: 57.4 µM
- GI50 [57]: 66.4 µM (inactive)
- GI50 [33]: 54.8 µM (inactive)
- GI50 [34]: 82 µM (inactive)
- GI50 [35]: > 100 µM (inactive)
- GI50 [36]: 40.9 µM (inactive)
- GI50 [37]: 28.5 µM (inactive)
- GI50 [38]: 43.3 µM (inactive)
- GI50 [39]: 36.5 µM (inactive)
- GI50 [40]: 39.5 µM (inactive)
- GI50 [41]: 75.7 µM (inactive)
- GI50 [42]: 34.6 µM (inactive)
- GI50 [43]: > 100 µM (inactive)
- GI50 [44]: 30.8 µM (inactive)
- GI50 [45]: 23.1 µM (inactive)
- GI50 [46]: > 100 µM (inactive)
- GI50 [47]: > 100 µM (inactive)
- GI50 [48]: > 100 µM (inactive)
- GI50 [49]: 48.5 µM (inactive)
- GI50 [50]: > 100 µM (inactive)
- GI50 [51]: 16 µM (inactive)
- GI50 [52]: 27.4 µM (inactive)
- GI50 [58]: 35.2 µM (inactive)
- GI50 [53]: > 100 µM (inactive)
- GI50 [54]: > 100 µM (inactive)
- GI50 [55]: 18.6 µM (inactive)
